The results in this text go back to patent US20240327792A1, “FLUID SHEAR STRESS FOR EX VIVO ACTIVATION OF IMMUNE EFFECTOR CELLS” (Vanderbilt University, priority 2021, published 2024).

Test [1] deals with ZAP70 phosphorylation in Jurkat cells. Nature of the test: ZAP70 phosphorylation of Jurkat cells treated with FSS and CD3/CD28 antibodies (flow cytometry). Format: cell-based, human. As for the experimental part:
T cell activation by FSS: Jurkat or primary T cells were collected and resuspended at a concentration of 200,000 cells/mL in complete RPMI 1640 media. The cells were treated with or without functional grade antibodies targeting CD3 (OKT3) and CD28 (CD28.2) at a concentration of 2 μg/mL for both antibodies. The T cells were then loaded into a Brookfield cone-and-plate viscometer for FSS treatment as described previously in Mitchell & King (Mitchell, M. J. et al. New J. Phys. 2013 15:015008). In a cone-and-plate viscometer the FSS magnitude is equal in all radial locations of the viscometer. The shear rate (G) is defined by the equation:
τ=μG • where μ is the viscosity (cP) of the fluid. In these experiments, viscosity was approximately 2.5 cP. Before FSS treatment, the cone-and-plate viscometer was cleaned thoroughly with 70% ethanol. The stationary plate and the rotating cone were then incubated with 5% BSA for 1 h to block nonspecific adhesion. The cells were exposed to fluid shear stress ranging from 0.5-5.0 dyn/cm^2 for times ranging from 15 to 60 min. Primarily, the cells were treated with FSS of magnitude 5.0 dyn/cm^2 for 1 h.
Where indicated, Jurkat cells were pretreated with different compounds prior to antibody and FSS treatment. The Jurkat cells were incubated with either 5 μM Cyclosporin A (CSA), 10 μM Cytochalasin D (CCD), 10 μM GsMTx-4, or 2 mM EGTA 30 min prior to antibody and FSS treatment.
Flow cytometry antibody staining: When staining for intracellular proteins, the cells were immediately fixed with 4% paraformaldehyde for 10 min. The cells were washed thoroughly and permeabilized with 100% ice cold methanol for 10 min. After washing the cells, the cells were stained with the indicated fluorescent-tagged antibodies for 15 min in 1% BSA. The fluorescence of each sample was measured using a Gauva easyCyte 5HT flow cytometer. Gating was performed using FlowJo software. For Jurkat samples, debris was gated out and fluorescence was quantified using FlowJo software.
In general terms: A flow cytometer gives signals particle by particle.

In test [2] the test system is NF-κB phosphorylation in DC2.4 cells. Description: NF-κB phosphorylation in DC2.4 dendritic cells (flow cytometry). In kind it is cell-based, murine. As for the experimental part:
(§1) Prior to prepping cells, the cone-and-plate was incubated with 5% bovine serum albumin (BSA) for 1 h in order to block non-specific binding. DC2.4 cells were lifted with trypsin, washed, and resuspended in complete RMPI media at 200,000 cells/mL. Cells were placed on a rotator for static conditions. For shear conditions, an FSS of 5.0 dyn/cm^2 was applied for 1 h using cone-and-plate flow device. Static and shear conditions were either left untreated or treated with lipopolysaccharide (LPS) potent stimulator at 10 μg/mL.
(§2) Flow cytometry analysis and antibody staining: Following FSS stimulation, cells were plated overnight or immediately prepped for flow cytometry analysis. For intracellular proteins such as NF-κB and AP-1, cells were fixed with 4% paraformaldehyde for 10 min. Cells were washed with HBSS and permeabilized with 100% ice cold methanol. Cells were washed again and stained for 15 min in the dark with antibodies fluorescently-labeled with PE fluorophore while suspended in 1% BSA. Guava easyCyte 5HT flow cytometer was used to measure fluorescent intensity, with FloJo software used for gating and analysis. For extracellular proteins analyzed after 24 h, cells were lifted with trypsin, washed, and incubated with fluorescently-labeled antibodies in 1% BSA and then washed a final time.
(§3) Inhibition of NF-κB: NF-κB was inhibited using caffeic acid phenethyl ester (CAPE). DC2.4 cells were lifted, washed and suspended in 200,000 cells/mL complete media. 1 μL of CAPE was added to this suspension. Cells were placed on a rotator for 30 min to allow for effective inhibition, and then added to the cone-and-plate viscometer for FSS stimulation. Following FSS, NF-κB phosphorylation analysis was performed after 1 h FSS. Following stimulation, 100,000 cells were plated overnight for cytokine analysis and 100,000 cells were immediately analyzed for NF-κB phosphorylation. NF-κB and cytokine assays were performed as described previously.
GsMTx4: GsMTx-4 (ab141871) was purchased from Abcam. […] Following FSS, cells were prepared and analyzed for NF-κB phosphorylation as previously described. […]

Test [3] deals with DC2.4 cells. Description: Costimulatory molecule expression in DC2.4 cells 24 h after stimulation. Format: cell-based, murine. The conditions noted are these: 10 μg/mL LPS, 24 h after 1 h stimulation, regardless of shear stress. As to the method:
as §1, §2

Test [4] has as its system DC2.4 cells. Nature of the test: Intracellular cytokine staining of DC2.4 cells after 24 h (IL-6, IL-12, CCR7). Format: cell-based, murine. As to the method:
as §1
Cytokine staining: For intracellular cytokine staining (ICS), cells were plated overnight following FSS stimulation. After 24 h, cells were treated with 1:1000 GolgiPlug Transport Inhibitor to block cytokine secretion. After 4 h, cells were lifted and stained following the previously described protocol for staining intracellular proteins. IL-6, IL-12 and CCR7 were investigated in this study.
as §3

[5] abbreviates: Jurkat cells pretreated 10 μM 30 min prior to FSS and antibody treatment, compared to FSS and antibodies without the inhibitor.
Where [6] appears, read: after CAPE treatment and FSS, 24 h.

`O=C(O)CN(CCOCCOCCN(CC(=O)O)CC(=O)O)CC(=O)O` [EGTA]: the ZAP70 phosphorylation entry in test [1] (Jurkat cells pretreated 2 mM for 30 min, then FSS and antibodies, compared to FSS and antibodies only) is given as “significant reduction”.

As for GsMTx-4, the ZAP70 phosphorylation result in test [1] (setting [5]) was “significant reduction”. In addition, the NF-κB phosphorylation result in test [2] (DC2.4 cells incubated with 10 μmol GsMTx4, FSS, two replicates) is listed as “reduced”.

For lipopolysaccharide [LPS], in the test on DC2.4 cells [3], the “CD40 costimulatory molecule expression enhanced in the presence of LPS” value is recorded as “significant” and the “CD80 costimulatory molecule expression enhanced in the presence of LPS” value is reported as “trend”. Besides, the “release of IL-6, IL-12 and CCR7, FSS versus FSS with LPS” value in the test on DC2.4 cells [4] (10 μg/mL LPS, 24 h after 1 h 5.0 dyn/cm^2 FSS) is reported as “not a significant difference”. Besides, the “NF-κB phosphorylation, FSS with LPS versus FSS without LPS” value in test [2] (DC2.4 cells, 10 μg/mL LPS, 5.0 dyn/cm^2 FSS, 1 h) is recorded as “no significant difference”.

Regarding `C=C1[C@@H](C)[C@H]2[C@H](Cc3ccccc3)NC(=O)[C@]23[C@H](OC(C)=O)/C=C/[C@@](C)(O)C(=O)[C@@H](C)C/C=C/[C@H]3[C@@H]1O` [CCD, Cytochalasin D], the “ZAP70 phosphorylation (activation), antibody-only condition” value in test [1] (Jurkat cells pretreated 10 μM 30 min, antibody-only, no FSS) was “not significantly altering”. Also, the ZAP70 phosphorylation entry in test [1] (setting [5]) is “significantly reduced”.

In the case of `O=C(/C=C/c1ccc(O)c(O)c1)OCCc1ccccc1` [CAPE, caffeic acid phenethyl ester], in the test on DC2.4 cells [4] (setting [6]), the CCR7 production result is recorded as “strong trend in the reduction”, the IL-6 production result is given as “strong trend in the reduction” and the IL-12 release entry was “significant reduction”. For the same compound, the “NF-κB phosphorylation compared to untreated cells” value in test [2] (DC2.4 cells, CAPE 30 min before 1 h FSS) is given as “significant reduction”.
